Experimental data published in patent publication US10301291B2, “Imidazole derivative having JNK inhibitory activity and use thereof” (SAMJIN PHARMACEUTICAL CO., LTD., priority 2016, dated 2019).

The compounds below were run against JNK3 (Homo sapiens (Human), UniProt P53779) (assay: Measurement of JNK3 enzyme activity (33P-ATP filter-binding)). Conditions: human JNK3, ATP 10 μM, ATF2 3 μM.
Type: biochemical
Protocol: The changes in JNK3 enzyme activity resulting from being treated with the inventive imidazole derivative (Formula 1) shown in a following Table 1 were identified through IC50.
First of all, after a substrate was inserted into a prepared base reaction buffer solution (20 mM Hepes ([…]), 10 mM MgCl2, 1 mM EGTA, 0.02% Brij35, 0.02 mg/ml BSA, 0.1 mM Na3VO4, 2 mM DTT, 1% DMSO), a human JNK3 enzyme was added into a prepared substrate solution and then mixed together. As the substrate, ATP (10 μM) and ATF2 (3 μM) were used, among which the ATP was also used as a common substrate. Then, compounds of Examples 1-18 and 25-36, which were dissolved in 100% DMSO, were inserted into an enzyme reaction solution, and then cultured at room temperature for 20 minutes. Then, ^33P-ATP was inserted into the above reaction mixture solution to initiate a reaction, then cultured at room temperature for 2 hours, and then an enzyme activity was detected by means of a filter-binding method.
Particularly, after each 25 μl of the resulting solution was slowly spotted on P81 paper, it was inserted into a scintillation vial, and washed with 0.75% phosphoric acid four times for 10 minutes each, and with acetone once for 5 minutes. 5 ml of scintillation cocktail was inserted into the above scintillation vial and a resulting signal was read by means of a scintillation counter.
IC50 values of compounds of Examples 1-18 and 25-36 with regard to JNK3 enzyme activity were shown in a following Table 2.

JNK3, sequence (P53779 whole entry): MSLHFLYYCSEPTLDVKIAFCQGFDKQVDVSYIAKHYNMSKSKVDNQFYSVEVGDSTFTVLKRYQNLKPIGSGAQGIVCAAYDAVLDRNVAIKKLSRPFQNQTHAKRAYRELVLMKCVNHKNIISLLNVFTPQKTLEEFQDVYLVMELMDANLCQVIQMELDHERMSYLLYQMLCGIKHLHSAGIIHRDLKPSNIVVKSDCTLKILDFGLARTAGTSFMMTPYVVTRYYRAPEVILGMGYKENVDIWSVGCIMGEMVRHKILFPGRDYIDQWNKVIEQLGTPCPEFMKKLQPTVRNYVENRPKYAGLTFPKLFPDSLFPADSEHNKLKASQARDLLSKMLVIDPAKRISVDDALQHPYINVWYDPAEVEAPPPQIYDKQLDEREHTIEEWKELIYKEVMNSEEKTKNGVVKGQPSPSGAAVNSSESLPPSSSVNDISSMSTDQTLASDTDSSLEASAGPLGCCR

IC50 | Structure (SMILES)
30 to 100 nM | N#CCc1cnc(-c2ccc(Cl)c(Cl)c2)n1-c1ccnc(NC2CCCN(C(=O)C3CC3)C2)n1 (stereo not drawn) [Example 35, 2-(1-(2-(1-(cyclopropanecarbonyl)piperidine-3-ylamino)pyrimidine-4-yl)-2-(3,4-dichlorophenyl)-1H-imidazole-5-yl)acetonitrile]
30 to 100 nM | N#CCc1cnc(-c2ccc3c(c2)OCO3)n1-c1ccnc(NC2CCCN(C(=O)C3CC3)C2)n1 (stereo not drawn) [Example 31, 2-(2-(benzo[d][1,3]dioxol-5-yl)-1-(2-(1-(cyclopropanecarbonyl)piperidine-3-ylamino)pyrimidine-4-yl)-1H-imidazole-5-yl)acetonitrile]
30 to 100 nM | N#CCc1cnc(-c2ccc3ccccc3c2)n1-c1ccnc(NC2CCCCC2)n1 [Example 10, 2-(1-(2-(cyclohexylamino)pyrimidine-4-yl)-2-(naphthalene-2-yl)-1H-imidazole-5-yl)acetonitrile]
< 30 nM | N#CCc1cnc(-c2ccc3ccccc3n2)n1-c1ccnc(NC2CCCN(C(=O)C3CC3)C2)n1 (stereo not drawn) [Example 33, 2-(1-(2-(1-(cyclopropanecarbonyl)piperidine-3-ylamino)pyrimidine-4-yl)-2-(quinoline-2-yl)-1H-imidazole-5-yl)acetonitrile]
< 30 nM | N#CCc1cnc(-c2ccc3ccccc3c2)n1-c1ccnc(NC2CCOCC2)n1 [Example 4, 2-(2-(naphthalene-2-yl)-1-(2-(tetrahydro-2H-pyran-4-ylamino)pyrimidine-4-yl)-1H-imidazole-5-yl)acetonitrile]
30 to 100 nM | N#CCc1cnc(-c2ccc(Cl)c(Cl)c2)n1-c1ccnc(NC2CCCNC2)n1 (stereo not drawn) [Example 29, 2-(2-(3,4-dichlorophenyl)-1-(2-(piperidine-3-ylamino)pyrimidine-4-yl)-1H-imidazole-5-yl)acetonitrile]
< 30 nM | N#CCc1cnc(-c2ccc3ccccc3c2)n1-c1ccnc(NC2CCCNC2)n1 (stereo not drawn) [Example 28, 2-(2-(naphthalene-2-yl)-1-(2-(piperidine-3-ylamino)pyrimidine-4-yl)-1H-imidazole-5-yl)acetonitrile]
30 to 100 nM | CC(O)CNc1nccc(-n2c(CC#N)cnc2-c2ccc3c(c2)OCCO3)n1 (stereo not drawn) [Example 14, 2-(2-(2,3-dihydrobenzo[b][1,4]dioxin-6-yl)-1-(2-(2-hydroxypropylamino)pyrimidine-4-yl)-1H-imidazole-5-yl)acetonitrile]
> 100 nM | N#CCc1cnc(-c2ccc3c(c2)OCCO3)n1-c1ccnc(NC2CCCCC2)n1 [Example 8, 2-(1-(2-(cyclohexylamino)pyrimidine-4-yl)-2-(2,3-dihydrobenzo[b][1,4]dioxin-6-yl)-1H-imidazole-5-yl)acetonitrile]
30 to 100 nM | N#CCc1cnc(-c2ccc(F)c(C(F)(F)F)c2)n1-c1ccnc(NC2CCCN(C(=O)C3CC3)C2)n1 (stereo not drawn) [Example 36, 2-(1-(2-(1-(cyclopropanecarbonyl)piperidine-3-ylamino)pyrimidine-4-yl)-2-(4-fluoro-3-(trifluoromethyl)phenyl)-1H-imidazole-5-yl)acetonitrile]
30 to 100 nM | N#CCc1cnc(-c2ccc(Cl)c(Cl)c2)n1-c1ccnc(NC2CCOCC2)n1 [Example 5, 2-(2-(3,4-dichlorophenyl)-1-(2-(tetrahydro-2H-pyran-4-ylamino)pyrimidine-4-yl)-1H-imidazole-5-yl)acetonitrile]
> 100 nM | N#CCc1cnc(-c2ccc(F)c(C(F)(F)F)c2)n1-c1ccnc(NC2CCCCC2)n1 [Example 12, 2-(1-(2-(cyclohexylamino)pyrimidine-4-yl)-2-(4-fluoro-3-(trifluoromethyl)phenyl)-1H-imidazole-5-yl)acetonitrile]
< 30 nM | N#CCc1cnc(-c2ccc3occc3c2)n1-c1ccnc(NC2CCCN(C(=O)C3CC3)C2)n1 (stereo not drawn) [Example 37]
> 100 nM | N#CCc1cnc(-c2ccc3c(c2)OCCO3)n1-c1ccnc(NC2CCOCC2)n1 [Example 2, 2-(2-(2,3-dihydrobenzo[b][1,4]dioxin-6-yl)-1-(2-(tetrahydro-2H-pyran-4-ylamino)pyrimidine-4-yl)-1H-imidazole-5-yl)acetonitrile]
30 to 100 nM | N#CCc1cnc(-c2ccc(F)c(C(F)(F)F)c2)n1-c1ccnc(NC2CCOCC2)n1 [Example 6, 2-(2-(4-fluoro-3-(trifluoromethyl)phenyl)-1-(2-(tetrahydro-2H-pyran-4-ylamino)pyrimidine-4-yl)-1H-imidazole-5-yl)acetonitrile]
30 to 100 nM | CC(O)CNc1nccc(-n2c(CC#N)cnc2-c2ccc3ccccc3c2)n1 (stereo not drawn) [Example 16, 2-(1-(2-(2-hydroxypropylamino)pyrimidine-4-yl)-2-(naphthalene-2-yl)-1H-imidazole-5-yl)acetonitrile]
> 100 nM | N#CCc1cnc(-c2ccc3c(c2)OCO3)n1-c1ccnc(NC2CCCCC2)n1 [Example 7, 2-(2-(benzo[d][1,3]dioxol-5-yl)-1-(2-(cyclohexylamino)pyrimidine-4-yl)-1H-imidazole-5-yl)acetonitrile]
30 to 100 nM | N#CCc1cnc(-c2ccc3c(c2)OCCO3)n1-c1ccnc(NC2CCCN(C(=O)C3CC3)C2)n1 (stereo not drawn) [Example 32, 2-(1-(2-(1-(cyclopropanecarbonyl)piperidine-3-ylamino)pyrimidine-4-yl)-2-(2,3-dihydrobenzo[b][1,4]dioxin-6-yl)-1H-imidazole-5-yl)acetonitrile]
30 to 100 nM | N#CCc1cnc(-c2ccc(F)c(C(F)(F)F)c2)n1-c1ccnc(NC2CCCNC2)n1 (stereo not drawn) [Example 30, 2-(2-(4-fluoro-3-(trifluoromethyl)phenyl)-1-(2-(piperidine-3-ylamino)pyrimidine-4-yl)-1H-imidazole-5-yl)acetonitrile]
30 to 100 nM | N#CCc1cnc(-c2ccc(Cl)c(Cl)c2)n1-c1ccnc(NC2CCCCC2)n1 [Example 11, 2-(1-(2-(cyclohexylamino)pyrimidine-4-yl)-2-(3,4-dichlorophenphenyl)-1H-imidazole-5-yl)acetonitrile]
> 100 nM | N#CCc1cnc(-c2ccc3c(c2)OCO3)n1-c1ccnc(NC2CCCNC2)n1 (stereo not drawn) [Example 25, 2-(2-(benzo[d][1,3]dioxol-5-yl)-1-(2-(piperidine-3-ylamino)pyrimidine-4-yl)-1H-imidazole-5-yl) acetonitrile]
30 to 100 nM | CC(O)CNc1nccc(-n2c(CC#N)cnc2-c2ccc3c(c2)OCO3)n1 (stereo not drawn) [Example 13, 2-(2-(benzo[d][1,3]dioxol-5-yl)-1-(2-(2-hydroxypropylamino)pyrimidine-4-yl)-1H-imidazole-5-yl)acetonitrile]
30 to 100 nM | N#CCc1cnc(-c2ccc3c(c2)OCCO3)n1-c1ccnc(NC2CCCNC2)n1 (stereo not drawn) [Example 26, 2-(2-(2,3-dihydrobenzo[b][1,4]dioxin-6-yl)-1-(2-(piperidine-3-ylamino)pyrimidine-4-yl)-1H-imidazole-5-yl)acetonitrile]
> 100 nM | N#CCc1cnc(-c2ccc3ccccc3n2)n1-c1ccnc(NC2CCCCC2)n1 [Example 9, 2-(1-(2-(cyclohexylamino)pyrimidine-4-yl)-2-(quinoline-2-yl)-1H-imidazole-5-yl)acetonitrile]
30 to 100 nM | CC(O)CNc1nccc(-n2c(CC#N)cnc2-c2ccc(F)c(C(F)(F)F)c2)n1 (stereo not drawn) [Example 18, 2-(2-(4-fluoro-3-(trifluoromethyl)phenyl)-1-(2-(2-hydroxypropylamino)pyrimidine-4-yl)-1H-imidazole-5-yl)acetonitrile]
30 to 100 nM | CC(O)CNc1nccc(-n2c(CC#N)cnc2-c2ccc3ccccc3n2)n1 (stereo not drawn) [Example 15, 2-(1-(2-(2-hydroxypropylamino)pyrimidine-4-yl)-2-(quinoline-2-yl)-1H-imidazole-5-yl)acetonitrile]
30 to 100 nM | CC(O)CNc1nccc(-n2c(CC#N)cnc2-c2ccc(Cl)c(Cl)c2)n1 (stereo not drawn) [Example 17, 2-(2-(3,4-dichlorophenyl)-1-(2-(2-hydroxypropylamino)pyrimidine-4-yl)-1H-imidazole-5-yl)acetonitrile]
30 to 100 nM | N#CCc1cnc(-c2ccc3ccccc3n2)n1-c1ccnc(NC2CCCNC2)n1 (stereo not drawn) [Example 27, 2-(1-(2-(piperidine-3-ylamino)pyrimidine-4-yl)-2-(quinoline-2-yl)-1H-imidazole-5-yl)acetonitrile]
30 to 100 nM | N#CCc1cnc(-c2ccc3ccccc3n2)n1-c1ccnc(NC2CCOCC2)n1 [Example 3, 2-(2-(quinoline-2-yl)-1-(2-(tetrahydro-2H-pyran-4-ylamino)pyrimidine-4-yl)-1H-imidazole-5-yl) acetonitrile]
30 to 100 nM | N#CCc1cnc(-c2ccc3c(c2)OCO3)n1-c1ccnc(NC2CCOCC2)n1 [Example 1, 2-(2-(benzo[d][1,3]dioxol-5-yl)-1-(2-(tetrahydro-2H-pyran-4-ylamino)pyrimidine-4-yl)-1H-imidazole-5-yl)acetonitrile]
